Experimental data reported in ChEMBL document CHEMBL4823244, “Synthesis of norisoboldine derivatives and bioactivity assay for inducing the generation of regulatory T cells” (Bioorg Med Chem Lett, 2021).
The source made the active and inactive calls. No cut-off for these calls is given here.

What was measured:
EL4 = assay: Cytotoxicity against mouse EL4 cells assessed as effect on cell viability at 1 to 10 uM measured after 72 hrs by MTT assay; type: cell-based; conditions: el4, 72 h, dose 1-10 µM
T-cell [1] = assay: Induction of cell differentiation in anti-CD3/CD28 stimulated naive T-cells assessed as upregulation of CD4+ CD25+ cell frequency at 1 uM measured after 72 hrs by flow cytometry analysis; type: functional, cell-based
Mus musculus [2] = assay: Antiinflammatory activity in DSS-induced ulcerative colitis mouse model assessed as protection against colon destruction at 28 to 56 mg/kg, po administered for 10 consecutive days by HE staining based histopathological analysis; type: functional, organism-based; conditions: dose 28-56 mg/kg, time 10.0 day
T-cell [3] = assay: Induction of cell differentiation in anti-CD3/CD28 stimulated naive T-cells assessed as number of Treg cells at 1 uM measured after 72 hrs by flow cytometry analysis (reference value: 24 %); type: functional
Mus musculus [4] = assay: Induction of Treg cell differentiation in DSS- induced ulcerative colitis mouse model assessed as number of Treg cells in mesenteric lymph nodes at 28 mg/kg, po administered for 10 consecutive days by flow cytometry analysis (Rvb= 7.52%); type: functional; conditions: time 10 day
Mus musculus [5] = assay: Induction of Treg cell differentiation in DSS- induced ulcerative colitis mouse model assessed as number of Treg cells in mesenteric lymph nodes at 56 mg/kg, po administered for 10 consecutive days by flow cytometry analysis (Rvb= 7.52%); type: functional; conditions: time 10 day
Mus musculus [6] = assay: Induction of Treg cell differentiation in DSS- induced ulcerative colitis mouse model assessed as number of Treg cells in spleens at 56 mg/kg, po administered for 10 consecutive days by flow cytometry analysis (Rvb= 6.49%); type: functional; conditions: time 10 day
T-cell [7] = assay: Induction of cell differentiation in anti-CD3/CD28 stimulated naive T-cells assessed as number of Treg cells at 0.3 uM measured after 72 hrs by flow cytometry analysis (reference value: 24 %); type: functional
T-cell [8] = assay: Induction of cell differentiation in anti-CD3/CD28 stimulated naive T-cells assessed as number of Treg cells at 3 uM measured after 72 hrs by flow cytometry analysis (reference value: 24 %); type: functional
Mus musculus [9] = assay: Induction of Treg cell differentiation in DSS- induced ulcerative colitis mouse model assessed as number of Treg cells in colonic lamina proprias at 56 mg/kg, po administered for 10 consecutive days by flow cytometry analysis (Rvb= 7.97%); type: functional; conditions: time 10 day
T-cell [10] = assay: Induction of cell differentiation in anti-CD3/CD28 stimulated naive T-cells assessed as upregulation of Foxp3 mRNA expression at 1 uM measured after 72 hrs by Q-PCR analysis; type: functional, cell-based
Mus musculus [11] = assay: Antiinflammatory activity in DSS-induced ulcerative colitis mouse model assessed as reduction in DAI score at 28 to 56 mg/kg, po administered for 10 consecutive days; type: functional, organism-based; conditions: dose 28-56 mg/kg, time 10.0 day
T-cell [12] = assay: Induction of cell differentiation in anti-CD3/CD28 stimulated naive T-cells assessed as upregulation of Foxp3 mRNA expression at 0.3 to 3 uM measured after 72 hrs by Q-PCR analysis; type: functional, cell-based; conditions: dose 0.3-3 µM
Mus musculus [13] = assay: Antiinflammatory activity in DSS-induced ulcerative colitis mouse model assessed as reduction in MPO activity at 28 to 56 mg/kg, po administered for 10 consecutive days; type: functional, organism-based; conditions: dose 28-56 mg/kg, time 10.0 day
Mus musculus [14] = assay: Antiinflammatory activity in DSS-induced ulcerative colitis mouse model assessed as rescue of colon length shortening at 28 to 56 mg/kg, po administered for 10 consecutive days; type: functional, organism-based; conditions: dose 28-56 mg/kg, time 10.0 day
Mus musculus [15] = assay: Antiinflammatory activity in DSS-induced ulcerative colitis mouse model assessed as protection against inflammation of colons at 28 to 56 mg/kg, po administered for 10 consecutive days by HE staining based histopathological analysis; type: functional, organism-based; conditions: dose 28-56 mg/kg, time 10.0 day
Mus musculus [16] = assay: Induction of Treg cell differentiation in DSS- induced ulcerative colitis mouse model assessed as number of Treg cells in spleens at 28 mg/kg, po administered for 10 consecutive days by flow cytometry analysis (Rvb= 6.49%); type: functional; conditions: time 10 day
Mus musculus [17] = assay: Induction of Treg cell differentiation in DSS- induced ulcerative colitis mouse model assessed as number of Treg cells in colonic lamina proprias at 28 mg/kg, po administered for 10 consecutive days by flow cytometry analysis (Rvb= 7.97%); type: functional; conditions: time 10 day
T-cell [18] = assay: Induction of cell differentiation in anti-CD3/CD28 stimulated naive T-cells assessed as upregulation of IL-10 mRNA expression at 0.3 to 3 uM measured after 72 hrs by Q-PCR analysis; type: functional, cell-based; conditions: dose 0.3-3 µM
Mus musculus [19] = assay: Induction of Treg cell differentiation in DSS- induced ulcerative colitis mouse model assessed as increase in Foxp3 mRNA level at 28 to 56 mg/kg, po administered for 10 consecutive days by Q-PCR analysis; type: functional, organism-based; conditions: dose 28-56 mg/kg, time 10.0 day
Mus musculus [20] = assay: Induction of Treg cell differentiation in DSS- induced ulcerative colitis mouse model assessed as increase in IL-10 mRNA level at 28 to 56 mg/kg, po administered for 10 consecutive days by Q-PCR analysis; type: functional, organism-based; conditions: dose 28-56 mg/kg, time 10.0 day

For COc1cc2c(cc1O)CC1c3c(cc(OC)c(O)c3-2)CCN1Cc1cc(C)cc(C)c1 (stereo unspecified), the Activity (EL4) was “Non-Toxic”.

For COc1cc2c(cc1O)CC1c3c(cc(OC)c(O)c3-2)CCN1C(=O)c1ccc(Br)cc1 (stereo unspecified), the Activity (EL4) was “Non-Toxic”.

With COc1cc2c(cc1O)CC1c3c(cc(OC)c(O)c3-2)CCN1Cc1ccc([N+](=O)[O-])cc1 (stereo unspecified) the Activity (EL4) was “Non-Toxic”.

For COc1cc2c(cc1O)CC1c3c(cc(OC)c(O)c3-2)CCN1Cc1ccc(C#N)cc1 (stereo unspecified), the Activity (EL4) was “Non-Toxic”.

With COc1ccc(C(=O)N2CCc3cc(OC)c(O)c4c3C2Cc2cc(O)c(OC)cc2-4)cc1 (stereo unspecified) the Activity (EL4) was “Non-Toxic”.

For COc1cc2c(cc1O)CC1c3c(cc(OC)c(O)c3-2)CCN1C(=O)c1ccc([N+](=O)[O-])cc1 (stereo unspecified), the Activity (EL4) was “Non-Toxic”.

With COc1cc(OC)cc(C(=O)N2CCc3cc(OC)c(O)c4c3C2Cc2cc(O)c(OC)cc2-4)c1 (stereo unspecified) the Activity (EL4) was “Non-Toxic”.

COc1cccc(CN2CCc3cc(OC)c(O)c4c3C2Cc2cc(O)c(OC)cc2-4)c1 (stereo unspecified) was tested, and the Activity (EL4) was “Non-Toxic”.

For COc1cc2c(cc1O)CC1c3c(cc(OC)c(O)c3-2)CCN1C(=O)c1cc(C)cc(C)c1 (stereo unspecified), the Activity (T-cell [1]) was “inactive”, the Activity (Mus musculus [2]) was “Active” and the Activity (T-cell [3]) was 31.1%. It also gave an Activity (Mus musculus [4]) of 11.55%, an Activity (Mus musculus [5]) of 12.32% and an Activity (Mus musculus [6]) of 7.87%. It also gave an Activity (T-cell [7]) of 25.2%, an Activity (T-cell [8]) of 36% and an Activity (Mus musculus [9]) of 14.5%. For the same compound, the Activity (EL4) was “Non-Toxic”, the Activity (T-cell [10]) was “Active” and the Activity (Mus musculus [11]) was “Active”. The Activity (T-cell [12]) was “Active”, the Activity (Mus musculus [13]) was “Active” and the Activity (Mus musculus [14]) was “Active”. The Activity (Mus musculus [15]) was “Active”, the Activity (Mus musculus [16]) was 7.03% and the Activity (Mus musculus [17]) was 13.57%. The Activity (T-cell [18]) was “Active”, the Activity (Mus musculus [19]) was “Active” and the Activity (Mus musculus [20]) was “Active”.

With COc1cc2c(cc1O)CC1c3c(cc(OC)c(O)c3-2)CCN1Cc1ccc(C)cc1 (stereo unspecified) the Activity (EL4) was “Non-Toxic”.

COc1cc2c(cc1O)CC1c3c(cc(OC)c(O)c3-2)CCN1C(=O)c1ccc(F)cc1 (stereo unspecified) was tested, and the Activity (EL4) was “Non-Toxic”.
